Results taken from article PMC2633172 (The FASEB Journal, 2009).
Bridge positions count the residues as written; N and C are the ends. Ends that are not written are not given here. * marks the point of attachment. Biotin = O=C1N[C@H]2[C@H](CS[C@H]2CCCCC(=O)*)N1

Key:
[1] = system: γ-IFN stimulated U937 cells; assay: Inhibition of superoxide burst triggered by bead-peptide 33 complexes; type: cell-based, human; details: soluble peptide; submaximal concentration of bead-peptide 33 complexes
[2] = system: γ-IFN stimulated U937 cells; assay: Phagocytosis of fluorescent bead complexes by flow cytometry; type: cell-based, human; details: FITC-labeled bead complexes
[3] = target: Human FcγRI extracellular domain (human, UniProt P12314 16-292); assay: AlphaScreen or HTRF
Human FcγRI extracellular domain, sequence (P12314 16-292): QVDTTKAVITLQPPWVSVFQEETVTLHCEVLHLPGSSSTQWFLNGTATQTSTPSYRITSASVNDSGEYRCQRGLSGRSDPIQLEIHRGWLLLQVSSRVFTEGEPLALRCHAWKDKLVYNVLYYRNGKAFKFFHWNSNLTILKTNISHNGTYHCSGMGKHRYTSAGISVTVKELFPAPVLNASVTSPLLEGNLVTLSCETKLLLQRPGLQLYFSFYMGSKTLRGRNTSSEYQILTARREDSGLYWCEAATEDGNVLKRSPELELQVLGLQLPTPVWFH

With AQTDTSLMLPLLGSDEE [peptide 22 S4S13] the “ability to prevent receptor-mediated functions triggered by multimeric peptide 33” value [1] was “only weakly able or unable”.

“TDT C LMLPLLLG C DEE (disulfide) [peptide 22]” was tested, and the “internalized fluorescence relative to bead-IgG1 complexes” value ([2]; 2 h at 37°C, trypan blue quench, 10,000 cells) was at most 2 fold and the “bead-peptide signal intensity in the presence of IgG1” value ([2]; with IgG1 (67 μM)) was “reduced to background”.

H-AQKDPCTRWAMLLGCDGEK(Biotin) (disulfide 6-15 (inferred)) [cyclic peptide 30]: binds [3].

H-AQVNSCLLLPNLLGCGDDK(Biotin) (disulfide 6-15 (inferred)) [cyclic peptide 33]: binds [3].
